# Tested on: Corn wild type (RNA 1) (RNA, aptamer) GGCGCGAGGAAGGAGGUCUGAGGAGGUCACUGCGCC
# Assay: fluorescence titration, RNA varied
# Details: 100 mM KCl, 10 mM MgCl2; pH 7.5, 20 °C; 2.5 μM TO
smiles,measurement,value
CN1C(=Cc2cc[n+](C)c3ccccc23)Sc2ccccc21,apparent Kd,1400 nM

# — paper PMC6697623 (2019)
